Data on 14 molecules can be found in patent publication US7456192B2, “3β-amino azabicyclooctane heteroaromatic amid derivatives preparation method and therapeutic uses thereof” (Pierre Fabre Medicament, priority 2001, dated 2008).

pKi: −log10 of the molar value. Counter-ions that a name gives are not always drawn. Like-named read-outs stand apart in the source and are kept apart here. Marks after values point to notes of the source that are not given here.

For orientation: ED50 means the dose that gives a 50% effect, or the effect in half of the subjects. For orientation: pKi means the negative decadic logarithm of the Ki, by convention in mol/L. A higher pKi goes with a low Ki.

In data set [1] the test system is methylphenidate-induced behavior. Kind of data set: Antagonism of methylphenidate-induced behavior in rats (chewing inhibition, normalization). It counts as in vivo, rat. The protocol:
The compounds were tested in vivo (Table II) to measure their ability to antagonize methylphenidate-induced behavior in rats. […] Colpaert J. Pharmacol. Exp. Ther. 267, 181 (1993). This test characterizes the antipsychotic activity in a more in-depth manner than apomorphine effect antagonism, the test conventionally used.

The nature of data set [2]: Cataleptic activity in rats, compound alone without methylphenidate. The note with it: rat, in vivo.
The target of data set [3] is T1, D2 type central dopaminergic receptor (Homo sapiens, UniProt P14416). Particulars: radioligand 3H-YM-09151-2.
The next data set has as its system catalepsy. The experiment in a line: Cataleptic activity in rats, compound alone without methylphenidate. Particulars: rat, i.p.; 3 or 5 animals.
Data set [4] addresses T1, D2 type central dopaminergic receptor. The experiment in a line: biochemical.
The mark [5] stands for this setting: Rattus norvegicus, ip, read-out: Chewing inhibition ED50.
The mark [6] stands for this setting: Rattus norvegicus, ip, read-out: Normalization ED50.
[7] abbreviates: ip, rat, i.p., 3 or 5 animals, read-out: Chewing inhibition ED50.
The mark [8] stands for this setting: ip, rat, i.p., 3 or 5 animals, read-out: Normalization ED50.
The mark [9] stands for this setting: Rattus norvegicus, po, read-out: Chewing inhibition ED50.
The mark [10] stands for this setting: Rattus norvegicus, po, read-out: Normalization ED50.

T1 sequence (P14416 whole entry): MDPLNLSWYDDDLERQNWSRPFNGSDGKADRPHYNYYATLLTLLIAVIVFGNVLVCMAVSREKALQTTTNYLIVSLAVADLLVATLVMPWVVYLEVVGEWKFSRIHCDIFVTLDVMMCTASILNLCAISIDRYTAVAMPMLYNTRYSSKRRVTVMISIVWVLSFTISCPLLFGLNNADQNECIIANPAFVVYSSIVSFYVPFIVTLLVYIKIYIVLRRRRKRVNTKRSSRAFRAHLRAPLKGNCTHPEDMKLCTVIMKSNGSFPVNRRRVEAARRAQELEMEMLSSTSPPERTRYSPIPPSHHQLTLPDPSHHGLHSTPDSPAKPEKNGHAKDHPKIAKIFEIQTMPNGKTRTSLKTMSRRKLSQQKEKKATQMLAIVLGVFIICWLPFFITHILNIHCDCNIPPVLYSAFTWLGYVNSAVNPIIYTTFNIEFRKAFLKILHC

Turning to `Cc1nc2n(c(=O)c1CCN1CCC(c3noc4cc(F)ccc34)CC1)CCCC2` [Risperidone, reference compound], the values for the 50% effective dose (ED50) in data set [1] (setting [5]) and in data set [1] (setting [6]) were 0.25 mg/kg and 2.8 mg/kg, respectively.
Turning to `O=C(CCCN1CCC(O)(c2ccc(Cl)cc2)CC1)c1ccc(F)cc1` [Haloperidol, reference compound], the median effective dose (ED50) in data set [1] (setting [7]) stood at 0.08 mg/kg; in data set [1] (setting [8]), 0.32 mg/kg; in data set [2] (ip) it was 0.32 mg/kg.
For the molecule `CCN1CCCC1CNC(=O)c1cc(S(N)(=O)=O)ccc1OC` (stereo not shown) [Sulpiride, reference compound], the ED50 in data set [1] (setting [7]) is above 40 mg/kg; in data set [1] (setting [8]), above 40 mg/kg; in data set [2] (ip), above 160 mg/kg.
For the molecule `COc1cccc(C(=O)N[C@@H]2C[C@H]3CC[C@@H](C2)N3Cc2ccccc2)c1OC` [Tropapride, reference compound], in data set [1] (rat, i.p., 3 or 5 animals), the “Chewing inhibition ED50” value is listed as 0.0059^a mg/kg and the “Normalization ED50” value is 0.017^a mg/kg. The “D2 affinity (pKi)” value in data set [3] is reported as 10.02. In addition, in the data set on catalepsy, the “Catalepsy ED50” value is listed as 0.015^a mg/kg.
With `COc1c(C(=O)N[C@@H]2C[C@H]3CC[C@@H](C2)N3Cc2ccccc2)oc2cccnc12` [Example 4, 3-Methoxyfuro[3,2-b]pyridine-2-carboxylic acid (8-benzyl-8-azabicyclo[3.2.1]oct-3β-yl)amide dihydrochloride], the 50% effective dose (ED50) is 0.12 mg/kg in data set [1] (setting [5]), 0.98 mg/kg in data set [1] (setting [6]) and above 40 mg/kg in data set [2] (ip). This molecule showed a negative-log Ki (pKi) in data set [4] of 8.69.
Consider `COc1c(C(=O)N[C@@H]2C[C@H]3CC[C@@H](C2)N3Cc2ccsc2)sc2ncccc12` [Example 12, 3-Methoxythieno[2,3-b]pyridine-2-carboxylic acid [8-thiophen-3-ylmethyl-8-azabicyclo[3.2.1]oct-3β-yl]amide hydrochloride], for which the 50% effective dose (ED50) is 1.25 mg/kg in data set [1] (setting [5]), 1.25 mg/kg in data set [1] (setting [6]) and above 40 mg/kg in data set [2] (ip). This molecule also gave a negative-log Ki (pKi) in data set [4] of 8.59.
`COc1c(C(=O)N[C@@H]2C[C@H]3CC[C@@H](C2)N3Cc2ccc(F)cc2)sc2ncccc12` [Example 11, 3-Methoxythieno[2,3-b]pyridine-2-carboxylic acid [(8-(4-fluorobenzyl)-8-azabicyclo[3.2.1]oct-3β-yl)]amide hydrochloride]: the values for the ED50 in data set [1] (setting [5]), in data set [1] (setting [6]) and in data set [2] (ip) were 0.08 mg/kg, 0.31 mg/kg and above 40 mg/kg, respectively. This molecule gave a negative-log Ki (pKi) in data set [4] of 9.11.
With `COc1c(C(=O)N[C@@H]2C[C@H]3CC[C@@H](C2)N3Cc2ccc(F)cc2)sc2nccnc12` [Example 29, 3-Methoxythieno[2,3-b]pyrazine-2-carboxylic acid [8-(4-fluorobenzyl)-8-azabicyclo[3.2.1]oct-3β-yl]amide hydrochloride], the 50% effective dose (ED50) in data set [1] (setting [9]) is 0.08 mg/kg; in data set [1] (setting [10]) it was 0.32 mg/kg; in data set [2] (po) it was 5 mg/kg. Also, in data set [4], the negative-log Ki (pKi) was 9.18.
`COc1c(C(=O)N[C@@H]2C[C@H]3CC[C@@H](C2)N3Cc2ccc(Cl)cc2)sc2ncccc12` [Example 8, 3-Methoxythieno[2,3-b]pyridine-2-carboxylic acid [8-(4-chlorobenzyl)-8-azabicyclo[3.2.1]oct-3β-yl]amide hydrochloride]: the ED50 is 0.1 mg/kg in data set [1] (setting [5]), 1.3 mg/kg in data set [1] (setting [6]) and above 40 mg/kg in data set [2] (ip). The same molecule had a pKi in data set [4] of 8.76.
Regarding `CSc1c(C(=O)N[C@@H]2C[C@H]3CC[C@@H](C2)N3Cc2ccc(Cl)cc2)sc2nccnc12` [Example 31, 3-Methylsulfanylthieno[2,3-b]pyrazine-2-carboxylic acid [8-(4-chlorobenzyl)-8-azabicyclo[3.2.1]oct-3β-yl]amide hydrochloride], the median effective dose (ED50) was found to be 0.31 mg/kg in data set [1] (setting [9]), 0.31 mg/kg in data set [1] (setting [10]) and 1.25 mg/kg in data set [2] (po). The same molecule gave a pKi in data set [4] of 8.69.
Turning to `COc1c(C(=O)N[C@@H]2C[C@H]3CC[C@@H](C2)N3CC2CCCCC2)sc2ncccc12` [Example 10, 3-Methoxythieno[2,3-b]pyridine-2-carboxylic acid [8-cyclohexylmethyl-8-azabicyclo[3.2.1]oct-3β-yl]amide fumarate], the ED50 in data set [1] (setting [5]) is 1.25 mg/kg; in data set [1] (setting [6]) it was 5 mg/kg; in data set [2] (ip), above 40 mg/kg. The pKi in data set [4] is 8.59.
As for `COc1c(C(=O)N[C@@H]2C[C@H]3CC[C@@H](C2)N3Cc2ccccc2)sc2nccnc12` [Example 27, 3-Methoxythieno[2,3-b]pyrazine-2-carboxylic acid (8-benzyl-8-azabicyclo[3.2.1]oct-3β-yl)amide hydrochloride], the values for the median effective dose (ED50) in data set [1] (setting [9]), in data set [1] (setting [10]) and in data set [2] (po) were 0.27 mg/kg, 0.67 mg/kg and 9.5 mg/kg, respectively. The same molecule gave a pKi in data set [4] of 9.36.
With `CSc1c(C(=O)N[C@@H]2C[C@H]3CC[C@@H](C2)N3Cc2ccccc2)sc2ncccc12` [Example 2, 3-Methylsulfanylthieno[2,3-b]pyridine-2-carboxylic acid (8-benzyl-8-azabicyclo[3.2.1]oct-3β-yl)amide hydrochloride], the ED50 was 0.08 mg/kg in data set [1] (setting [5]), 0.56 mg/kg in data set [1] (setting [6]) and 1.8 mg/kg in data set [2] (ip). The negative-log Ki (pKi) in data set [4] is 9.35.
As for `CSc1c(C(=O)N[C@@H]2C[C@H]3CC[C@@H](C2)N3Cc2ccc(F)cc2)sc2nccnc12` [Example 32, 3-Methylsulfanylthieno[2,3-b]pyrazine-2-carboxylic acid [8-(4-fluorobenzyl)-8-azabicyclo[3.2.1]oct-3β-yl]amide hydrochloride], the ED50 is 0.08 mg/kg in data set [1] (setting [9]), 0.31 mg/kg in data set [1] (setting [10]) and 1.25 mg/kg in data set [2] (po). The negative-log Ki (pKi) in data set [4] is 9.17.
